{
  "source": "ChEMBL document CHEMBL5385903",
  "about": "“The activity and mechanism of vidofludimus as a potent enzyme inhibitor against NDM-1-positive E. coli” (Eur J Med Chem, 2023)",
  "key": {"[1]": {"molecular_target": "Metallo-beta-lactamase type 2 (Bacteria, UniProt C7C422)", "test": "Inhibition of Metallo-beta-lactamase NDM-1 (unknown origin) using nitrocefin as substrate incubated for 5 to 10 mins by spectramax reader analysis"}, "[2]": {"test_system": "Escherichia coli", "test": "Antibacterial activity against NDM-1 producing Escherichia coli assessed as inhibition of bacterial growth incubated overnight by broth microdilution assay", "assay_type": "functional"}, "[3]": {"test_system": "Escherichia coli", "test": "Antibacterial activity against NDM-1 producing Escherichia coli assessed as inhibition of bacterial growth at 4 ug/ml incubated for 5 hrs by time-kill assay", "assay_type": "functional, organism-based", "details": "dose 4.0 µg/ml"}, "[4]": {"test_system": "Escherichia coli", "test": "Antibacterial activity in NDM-1 producing Escherichia coli infected in BALB/c mouse assessed as increase in animal survival rate at 10 mg/kg,SC administrated upto 120 hrs for every 12 hrs interval", "assay_type": "functional"}, "[5]": {"test_system": "Escherichia coli", "test": "Antibacterial activity in NDM-1 producing Escherichia coli infected in BALB/c mouse assessed as reduction of bacterial burden in liver at 10 mg/kg,SC administration measured after 96 hrs of post-infection", "assay_type": "functional, organism-based"}, "[6]": {"test_system": "Escherichia coli", "test": "Antibacterial activity in NDM-1 producing Escherichia coli infected in BALB/c mouse assessed as reduction of bacterial burden in spleen at 10 mg/kg,SC administration measured after 96 hrs of post-infection", "assay_type": "functional, organism-based"}, "[7]": {"test_system": "Escherichia coli", "test": "Antibacterial activity in NDM-1 producing Escherichia coli infected in BALB/c mouse assessed as reduction of bacterial burden in small intestine at 10 mg/kg,SC administration measured after 96 hrs of post-infection", "assay_type": "functional, organism-based"}, "[8]": {"test_system": "Escherichia coli", "test": "Antibacterial activity in NDM-1 producing Escherichia coli infected in BALB/c mouse assessed as decrease in pathological damage in liver at 10 mg/kg,SC administration measured after 96 hrs of post-infection by hematoxylin and eosin staining based assay", "assay_type": "functional, organism-based"}, "[9]": {"test_system": "Escherichia coli", "test": "Antibacterial activity in NDM-1 producing Escherichia coli infected in BALB/c mouse assessed as decrease in pathological damage in spleen at 10 mg/kg,SC administration measured after 96 hrs of post-infection by hematoxylin and eosin staining based assay", "assay_type": "functional, organism-based"}, "[10]": {"test_system": "Escherichia coli", "test": "Antibacterial activity in NDM-1 producing Escherichia coli infected in BALB/c mouse assessed as decrease in pathological damage in small intestine at 10 mg/kg,SC administration measured after 96 hrs of post-infection by hematoxylin and eosin staining based assay", "assay_type": "functional, organism-based"}, "[11]": {"test_system": "Escherichia coli", "test": "Synergistic antibacterial activity against NDM-1 producing Escherichia coli assessed as inhibition of bacterial growth incubated overnight in presence of meropenem by broth microdilution assay", "assay_type": "functional"}, "[12]": {"test_system": "Escherichia coli", "test": "Synergistic antibacterial activity against NDM-1 producing Escherichia coli assessed as inhibition of bacterial growth by measuring meropenem MIC incubated overnight in presence of meropenem by broth microdilution assay", "assay_type": "functional"}, "[13]": {"test_system": "Escherichia coli", "test": "Synergistic antibacterial activity against NDM-1 producing Escherichia coli assessed as fractional inhibitory concentration index in presence of meropenem by checkerboard broth microdilution assay", "assay_type": "functional"}, "[14]": {"molecular_target": "T1, Beta-lactamase NDM-1 (Escherichia coli, UniProt E5KIY2)", "test": "Inhibition of Escherichia coli NDM-1 expressed in Escherichia coli BL21 (DE3) using nitrocefin as substrate by microplate reader analysis"}, "[15]": {"molecular_target": "Beta-lactamase NDM-1 (Escherichia coli) (UniProt E5KIY2)", "test": "Inhibition of Escherichia coli NDM-1 expressed in Escherichia coli BL21 (DE3) using nitrocefin as substrate at 10 ug/ml by microplate reader analysis relative to control", "details": "dose 10.0 µg/ml"}, "[16]": {"test_system": "Escherichia coli", "test": "Antibacterial activity against NDM-1 producing Escherichia coli assessed as inhibition of bacterial growth at 2 to 512 ug/ml incubated overnight by broth microdilution assay", "assay_type": "functional, organism-based", "details": "dose 2-512 µg/ml"}, "[17]": {"test_system": "Escherichia coli", "test": "Antibacterial activity against NDM-1 producing Escherichia coli assessed as inhibition of bacterial growth at 64 ug/ml incubated for 5 hrs by time-kill assay", "assay_type": "functional, organism-based", "details": "dose 64.0 µg/ml"}, "[18]": {"test_system": "Escherichia coli", "test": "Antibacterial activity in NDM-1 producing Escherichia coli infected in BALB/c mouse assessed as increase in animal survival rate at 10 mg/kg,IG administrated upto 120 hrs for every 12 hrs interval", "assay_type": "functional", "details": "po"}, "[19]": {"test_system": "Escherichia coli", "test": "Synergistic antibacterial activity in NDM-1 producing Escherichia coli infected in BALB/c mouse assessed as increase in animal survival rate at 10 mg/kg,IG administrated with meropenem by subcutaneous injection upto 120 hrs for every 12 hrs interval", "assay_type": "functional"}, "[20]": {"test_system": "Escherichia coli", "test": "Antibacterial activity in NDM-1 producing Escherichia coli infected in BALB/c mouse assessed as effect on white blood cell count at 10 mg/kg,IG administration measured after 96 hrs of post-infection", "assay_type": "functional, organism-based"}, "[21]": {"test_system": "Escherichia coli", "test": "Antibacterial activity in NDM-1 producing Escherichia coli infected in BALB/c mouse assessed as decrease in TNF-alpha level at 10 mg/kg,IG administration measured after 96 hrs of post-infection by ELISA", "assay_type": "functional, organism-based"}, "[22]": {"test_system": "Escherichia coli", "test": "Antibacterial activity in NDM-1 producing Escherichia coli infected in BALB/c mouse assessed as decrease in IL-1beta level at 10 mg/kg,IG administration measured after 96 hrs of post-infection by ELISA", "assay_type": "functional, organism-based"}, "[23]": {"test_system": "Escherichia coli", "test": "Antibacterial activity in NDM-1 producing Escherichia coli infected in BALB/c mouse assessed as decrease in IFN-gamma level at 10 mg/kg,IG administration measured after 96 hrs of post-infection by ELISA", "assay_type": "functional, organism-based"}, "[24]": {"test_system": "Escherichia coli", "test": "Antibacterial activity in NDM-1 producing Escherichia coli infected in BALB/c mouse assessed as decrease in pathological damage in liver at 10 mg/kg,IG administration measured after 96 hrs of post-infection by hematoxylin and eosin staining based assay", "assay_type": "functional, organism-based"}, "[25]": {"test_system": "Escherichia coli", "test": "Antibacterial activity in NDM-1 producing Escherichia coli infected in BALB/c mouse assessed as decrease in pathological damage in spleen at 10 mg/kg,IG administration measured after 96 hrs of post-infection by hematoxylin and eosin staining based assay", "assay_type": "functional, organism-based"}, "[26]": {"test_system": "Escherichia coli", "test": "Antibacterial activity in NDM-1 producing Escherichia coli infected in BALB/c mouse assessed as decrease in pathological damage in small intestine at 10 mg/kg,IG administration measured after 96 hrs of post-infection by hematoxylin and eosin staining based assay", "assay_type": "functional, organism-based"}, "[27]": {"molecular_target": "Beta-lactamase NDM-1 (Escherichia coli) (UniProt E5KIY2)", "test": "Inhibition of Escherichia coli NDM-1 assessed as effect on NDM-1 protein expression at 64 ug/ml incubated for 12 hrs by Western blotting analysis", "details": "dose 64.0 µg/ml"}, "[28]": {"molecular_target": "Beta-lactamase NDM-1 (Escherichia coli) (UniProt E5KIY2)", "test": "Binding affinity to Escherichia coli NDM-1 assessed as melting temperature at 64 ug/ml incubated for 18 hrs by CD spectroscopy", "details": "dose 64.0 µg/ml"}, "[29]": {"molecular_target": "Beta-lactamase NDM-1 (Escherichia coli) (UniProt E5KIY2)", "test": "Inhibition of Escherichia coli recombinant wild type NDM-1 expressed in Escherichia coli BL21 (DE3) incubated for 10 mins"}, "[30]": {"molecular_target": "Beta-lactamase NDM-1 (Escherichia coli) (UniProt E5KIY2)", "test": "Inhibition of Escherichia coli recombinant wild type NDM-1 expressed in Escherichia coli BL21 (DE3) at 4 to 128 ug/ml incubated for 10 mins relative to control", "details": "dose 4-128 µg/ml"}, "[31]": {"test_system": "Beta-lactamase NDM-1 (Escherichia coli), E5KIY2 [UNDEFINED MUTATION]", "test": "Inhibition of Escherichia coli recombinant NDM-1 mutant expressed in Escherichia coli BL21 (DE3) at 4 to 128 ug/ml incubated for 10 mins", "details": "dose 4-128 µg/ml"}, "[32]": {"molecular_target": "T1, Beta-lactamase NDM-1", "test": "Binding affinity to Escherichia coli NDM-1 assessed as equilibrium dissociation constant measured for 60 sec by bio-layer interferometry analysis"}, "[33]": {"molecular_target": "Beta-lactamase NDM-1 (Escherichia coli) (UniProt E5KIY2)", "test": "Binding affinity to Escherichia coli NDM-1 by bio-layer interferometry analysis"}},
  "note": "Calls of active or inactive are those of the source. The rule behind the calls is not given here.",
  "data": [
    {"smiles": "N[C@@H](CN[C@@H](CN[C@@H](CC(=O)O)C(=O)O)C(=O)O)C(=O)O", "values": [
      {"measurement": "IC50", "setting": "[1]", "result": 4.1, "unit": "µM"}
    ]},
    {"smiles": "C[C@@H](O)[C@H]1C(=O)N2C(C(=O)O)=C(S[C@@H]3CN[C@H](C(=O)N(C)C)C3)[C@H](C)[C@H]12", "note": "[MEROPENEM]", "values": [
      {"measurement": "MIC", "setting": "[2]", "result": 64, "unit": "mg/L"},
      {"measurement": "Activity", "setting": "[3]", "result": "inactive"},
      {"measurement": "survival at 10 mg/kg", "setting": "[4]", "result": 40, "unit": "%"},
      {"measurement": "Activity", "setting": "[5]", "result": "Active"},
      {"measurement": "Activity", "setting": "[6]", "result": "Active"},
      {"measurement": "Activity", "setting": "[7]", "result": "Active"},
      {"measurement": "Activity", "setting": "[8]", "result": "Active"},
      {"measurement": "Activity", "setting": "[9]", "result": "Active"},
      {"measurement": "Activity", "setting": "[10]", "result": "Active"}
    ]},
    {"smiles": "COc1cccc(-c2ccc(NC(=O)C3=C(C(=O)O)CCC3)c(F)c2)c1", "note": "[VIDOFLUDIMUS]", "values": [
      {"measurement": "MIC", "setting": "[2]", "result": 1020, "unit": "mg/L"},
      {"measurement": "MIC", "setting": "[11]", "result": 64, "unit": "mg/L"},
      {"measurement": "MIC", "setting": "[12]", "result": 4, "unit": "mg/L"},
      {"measurement": "fractional inhibitory concentration index (FICI)", "setting": "[13]", "result": 0.125},
      {"measurement": "IC50", "setting": "[14]", "result": 13.8, "unit": "µM"},
      {"measurement": "inhibition", "setting": "[15]", "result": 93.3, "unit": "%"},
      {"measurement": "Activity", "setting": "[16]", "result": "inactive"},
      {"measurement": "Activity", "setting": "[17]", "result": "inactive"},
      {"measurement": "survival at 10 mg/kg", "setting": "[18]", "result": 10, "unit": "%"},
      {"measurement": "survival at 10 mg/kg", "setting": "[19]", "result": 90, "unit": "%"},
      {"measurement": "Activity", "setting": "[20]", "result": "inactive"},
      {"measurement": "Activity", "setting": "[21]", "result": "inactive"},
      {"measurement": "Activity", "setting": "[22]", "result": "inactive"},
      {"measurement": "Activity", "setting": "[23]", "result": "inactive"},
      {"measurement": "Activity", "setting": "[24]", "result": "inactive"},
      {"measurement": "Activity", "setting": "[25]", "result": "inactive"},
      {"measurement": "Activity", "setting": "[26]", "result": "inactive"},
      {"measurement": "inhibition", "setting": "[27]", "result": "inactive"},
      {"measurement": "Tm", "setting": "[28]", "result": 58, "unit": "°C"},
      {"measurement": "inhibition", "setting": "[29]", "result": "Dose-Dependent Effect"},
      {"measurement": "inhibition", "setting": "[30]", "result": 14.9, "unit": "%"},
      {"measurement": "inhibition", "setting": "[31]", "result": "inactive"},
      {"measurement": "Kd", "setting": "[32]", "result": 0.337, "unit": "µM"},
      {"measurement": "Activity", "setting": "[33]", "result": "Dose-Dependent Effect"}
    ]}
  ]
}
